According to patent EP2567959B1, “6-(4-HYDROXY-PHENYL)-3-STYRYL-1H-PYRAZOLO[3,4-B]PYRIDINE-4-CARBOXYLIC ACID AMIDE DERIVATIVES AS KINASE INHIBITORS” (SANOFI, priority 2011, dated 2013):

Biological target: T1, human full-length recombinant PKC βII (Homo sapiens, UniProt P05771)
T1 construct: Active human full-length recombinant PKC βII; purchased Invitrogen GmbH, Darmstadt, Germany
Assay: Determination of PKC βII inhibition (Caliper mobility-shift kinase assay, phosphorylation of fluorescein peptide substrate)
Type: biochemical
Conditions: final compound concentration 1.14 µM (±0.15 µM); 60 min incubation at 32 °C
Description: Determination of PKC βII inhibition
PKC βII inhibition was determined according to the following protocol:
Active human full-length recombinant PKC βII and the peptide substrate, Fluorescein-RFARKGSLRQKNV, were purchased from Invitrogen GmbH, Darmstadt, Germany. Adenosine-5'-triphosphate (ATP), bovine serum albumine (BSA), dimethylsulphoxide (DMSO), 4-(2-hydroxyethyl)piperazine-1-ethanesulfonic acid (Hepes), Triton X-100, 1,2-Dioleoyl-sn-glycerol (DAG), L-α-Phosphatidyl-L-serine (PS), calcium chloride (CaCl2), and Pluronic F-68 were purchased from Sigma-Aldrich, Munich, Germany. Magnesium chloride, 1 M sodium hydroxide solution, 1M hydrochloric acid solution and EDTA were obtained from Merck Biosciences, Darmstadt, Germany.
Test compounds were diluted to three times the test concentration in buffer 1 (30 mM Hepes-NaOH, pH 7.4, 0.01 % Pluronic F-68 and 3 % (v/v) DMSO). The PKC βII enzyme was diluted to a concentration of 30 ng/ml in buffer 2 (30 mM Hepes-NaOH, pH 7.4, 15 mM MgCl2,150 µM CaCl2, 150 µg/ml PS, 60 µg/ml DAG, and 0.045 % (w/v) Triton X-100). The peptide substrate and ATP were diluted to concentrations of 3 µM and 120 µM, respectively, in buffer 2. Two µl of the compound solution were mixed with 2 µl of the diluted enzyme in a 384-well small volume microtiter plate (Greiner, Bio-One, Frickenhausen, Germany), and the kinase reaction was initiated by addition of 2 µl of the solution containing peptide substrate and ATP. After 60 min incubation at 32 °C, the reaction was stopped by addition of 20 µl of a solution containing 130 mM Hepes-NaOH, pH 7.4, 0.0195 % (v/v) Brij-35, 6.5 mM EDTA, 0.13 % chip coating reagent 3 (Caliper Lifescience Inc, Hopkinton, MA) and 6.5 % (v/v) DMSO. Phosphorylation of the substrate peptide was then detected on a Caliper 3000 instrument essentially as described by Pommereau et al (J. Biomol. Screening 2004, 9(5), 409-416). Separation conditions were as follows: Pressure -0.8 psi, upstream voltage - 3000 V, downstream voltage -800 V. Positive controls (buffer 1 instead of compound) and negative controls (buffer 1 instead of compound and buffer 2 instead of kinase solution) were run in parallel on each plate. Fractional turnover (R) was determined as the height of the peak of the phosphorylated peptide product divided by the sum of the unphosphorylated substrate and phosphorylated product peak heights. Percent-inhibition values for the test compounds were determined using the formula % Inhibition = 100*(1-(Rcompound-Rnegative control)/(Rpositive control-Rnegative control). [formula]
In the following table % inhibition values observed with example compounds at a final concentration of 1.14 µM (±0.15 µM) are listed: […]

T1 sequence (P05771 1-673 isoform P05771-2): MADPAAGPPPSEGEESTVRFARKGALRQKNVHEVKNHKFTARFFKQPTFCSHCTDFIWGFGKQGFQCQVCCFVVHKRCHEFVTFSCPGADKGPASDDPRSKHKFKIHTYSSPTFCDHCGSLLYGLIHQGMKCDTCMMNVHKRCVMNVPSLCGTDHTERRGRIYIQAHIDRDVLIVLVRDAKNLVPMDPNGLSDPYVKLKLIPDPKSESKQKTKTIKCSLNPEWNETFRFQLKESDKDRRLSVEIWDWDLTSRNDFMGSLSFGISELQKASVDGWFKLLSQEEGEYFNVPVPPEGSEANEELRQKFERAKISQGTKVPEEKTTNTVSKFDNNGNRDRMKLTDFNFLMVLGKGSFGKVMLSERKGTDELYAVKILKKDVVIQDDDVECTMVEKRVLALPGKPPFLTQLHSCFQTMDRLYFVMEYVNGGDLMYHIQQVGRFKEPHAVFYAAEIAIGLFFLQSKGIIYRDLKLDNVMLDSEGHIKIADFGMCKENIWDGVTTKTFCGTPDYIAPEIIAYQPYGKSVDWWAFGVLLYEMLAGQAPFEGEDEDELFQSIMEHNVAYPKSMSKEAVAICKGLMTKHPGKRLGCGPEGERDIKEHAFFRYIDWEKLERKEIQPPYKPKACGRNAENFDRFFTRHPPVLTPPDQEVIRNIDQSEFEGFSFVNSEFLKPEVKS

Row | inhibition at 1.14 µM [%] | Structure (SMILES)
1 | 88 | Cc1ccc(/C=C/c2n[nH]c3nc(-c4ccc(O)cc4)cc(C(=O)N4CCNCC4)c23)c(C)c1 [Example 49, [3-[(E)-2-(2,4-Dimethylphenyl)-vinyl]-6-(4-hydroxy-phenyl)-1H-pyrazolo[3,4-b]pyridin-4-yl]-piperazin-1-yl-methanone]
2 | 96 | O=C(c1cc(-c2ccc(O)cc2)nc2[nH]nc(/C=C/c3ccccc3)c12)N1CCNC[C@@H]1CO [Example 16, ((R)-2-Hydroxymethyl-piperazin-1-yl)-[6-(4-hydroxy-phenyl)-3-((E)-styryl)-1H-pyrazolo[3,4-b]pyridin-4-yl]-methanone]
3 | 90 | O=C(c1cc(-c2ccc(O)cc2)nc2[nH]nc(/C=C/c3cc(Cl)cc(N4CCCCC4)c3)c12)N1CCNCC1 [Example 30, [3-[(E)-2-(3-Chloro-5-pipe-ridin-1-yl-phe-nyl)-vinyl]-6-(4-hydroxy-phenyl)-1H-pyrazolo[3,4-b]pyridin-4-yl]-piperazin-1-yl-methanone]
4 | 95 | CC(C)(C)c1ccc(/C=C/c2n[nH]c3nc(-c4ccc(O)cc4)cc(C(=O)N4CCNCC4)c23)cc1 [Example 54, [3-[(E)-2-(4-tert-Butyl-phenyl)-vinyl]-6-(4-hydroxy-phenyl)-1H-pyrazolo[3,4-b]pyridin-4-yl]-piperazin-1-yl-methanone]
5 | 97 | O=C(c1cc(-c2ccc(O)cc2)nc2[nH]nc(/C=C/c3ccc(Oc4ccccc4)cc3)c12)N1CCNCC1 [Example 44, {6-(4-hydroxy-phenyl)-3-[(E)-2-(4-phenoxy-phenyl)-vinyl]-1H-pyrazolo[3,4-b]pyridin-4-yl}-piperazin-1-yl-methanone]
6 | 96 | Cc1cc(/C=C/c2n[nH]c3nc(-c4ccc(O)cc4)cc(C(=O)N4CCNCC4)c23)ccc1C#N [Example 29, 4-{(E)-2-[6-(4-Hydroxy-phenyl)-4-(piperazine-1-carbonyl)-1H-pyrazolo[3,4-b]pyridin-3-yl]-vinyl}-2-methyl-benzonitrile]
7 | 19 | O=C(c1cc(-c2ccc(O)cc2)nc2[nH]nc(/C=C/c3ccccc3)c12)N1CCN(C2CC2)CC1 [Example 85, (4-Cyclopropyl-piperazin-1-yl)-[6-(4-hydroxy-phenyl)-3-((E)-styryl)-1H-pyra-zolo[3,4-b]py-ridin-4-yl]-methanone]
8 | 96 | Cc1cc(O)ccc1-c1cc(C(=O)N2CCNCC2)c2c(/C=C/c3ccccc3)n[nH]c2n1 [Example 7, [6-(4-Hydroxy-2-methyl-phenyl)-3-((E)-styryl)-1H-pyrazolo[3,4-b]pyridin-4-yl]-piperazin-1-yl-methanone]
9 | 92 | Cc1ccc(C)c(/C=C/c2n[nH]c3nc(-c4ccc(O)cc4)cc(C(=O)N4CCNCC4)c23)c1 [Example 50, [3-[(E)-2-(2,5-Dimethylphenyl)-vinyl]-6-(4-hydroxy-phenyl)-1H-pyrazolo[3,4-b]pyridin-4-yl]-piperazin-1-yl-methanone]
10 | 99 | C[C@H]1CNCCN1C(=O)c1cc(-c2ccc(O)cc2F)nc2[nH]nc(/C=C/c3ccccc3)c12 [Example 11, [6-(2-Fluoro-4-hydroxy-phenyl)-3-((E)-styryl)-1H-pyrazolo[3,4-b]pyridin-4-yl]-((S)-2-methyl-piperazin-1-yl)-methanone]
11 | 94 | CC(C)c1ccc(/C=C/c2n[nH]c3nc(-c4ccc(O)cc4)cc(C(=O)N4CCNCC4)c23)cc1 [Example 51, {6-(4-Hydroxy-phenyl)-3-[(E)-2-(4-isopropyl-phenyl)-vinyl]-1H-pyrazolo[3,4-b]pyridin-4-yl}-piperazin-1-yl-methanone]
12 | 27 | CN(C)C(=O)N1CCN(C(=O)c2cc(-c3ccc(O)cc3)nc3[nH]nc(/C=C/c4ccccc4)c23)CC1 [Example 74, 4-[6-(4-Hydroxy-phenyl)-3-((E)-styryl)-1H-pyrazolo[3,4-b]pyridine-4-carbonyl]-piperazine-1-carboxylic acid dimethylamide]
13 | 93 | CC1(NC(=O)c2cc(-c3ccc(O)cc3)nc3[nH]nc(/C=C/c4ccccc4)c23)CCNCC1 [Example 75, 6-(4-Hydroxy-phenyl)-3-((E)-styryl)-1H-pyra-zolo[3,4-b]-pyridine-4-car-boxylic acid (4-methyl-piperidin-4-yl)-amide]
14 | 99 | Cc1cc(C)cc(/C=C/c2n[nH]c3nc(-c4ccc(O)cc4)cc(C(=O)N4CCNCC4)c23)c1 [Example 40, [3-[(E)-2-(3,5-Dimethylphenyl)-vinyl]-6-(4-hydroxy-phenyl)-1H-pyrazolo[3,4-b]pyridin-4-yl]-piperazin-1-yl-methanone]
15 | 96 | O=C(c1cc(-c2ccc(O)cc2)nc2[nH]nc(/C=C/c3cccc(N4CCCCC4)c3)c12)N1CCNCC1 [Example 26, {6-(4-Hydroxy-phenyl)-3-[(E)-2-(3-piperidin-1-yl-phenyl)-vinyl]-1H-pyrazolo[3,4-b]pyridin-4-yl}-piperazin-1-yl-methanone]
16 | 93 | CC(C)(O)C(=O)N1CCN(C(=O)c2cc(-c3ccc(O)cc3)nc3[nH]nc(/C=C/c4ccccc4)c23)CC1 [Example 86, 2-Hydroxy-1-{4-[6-(4-hydroxy-phenyl)-3-((E)-styryl)-1H-pyra-zolo[3,4-b]pyri-dine-4-carbonyl]-piperazin-1-yl}-2-methyl-propan-1-one]
17 | 99 | O=C(c1ccc(/C=C/c2n[nH]c3nc(-c4ccc(O)cc4)cc(C(=O)N4CCNCC4)c23)cc1)N1CCCCC1 [Example 19, (6-(4-Hydroxy-phenyl)-3-{(E)-2-[4-(piperidine-1-carbonyl)-phenyl]-vinyl}-1Hpyrazolo[3,4-b]pyridin-4-yl)-piperazin-1-yl-methanone]
18 | 98 | C[C@H]1CNCCN1C(=O)c1cc(-c2ccc(O)cc2)nc2[nH]nc(/C=C/c3ccccc3)c12 [Example 6, [6-(4-Hydroxy-phenyl)-3-((E)-styryl)-1H-pyrazolo[3,4-b]pyridin-4-yl]-((S)-2-methyl-piperazin-1-yl)-methanone]
19 | 97 | O=C(c1cc(-c2ccc(O)cc2)nc2[nH]nc(/C=C/c3ccc(F)cc3)c12)N1CCNCC1 [Example 37, [3-[(E)-2-(4-Fluoro-phenyl)-vinyl]-6-(4-hydroxy-phenyl)-1H-pyrazolo[3,4-b]pyridin-4-yl]-piperazin-1-yl-methanone]
20 | 91 | O=C(c1cc(-c2ccc(O)cc2)nc2[nH]nc(/C=C/c3ccc(F)cc3Cl)c12)N1CCNCC1 [Example 52, [3-[(E)-2-(2-Chloro-4-fluorophenyl)-vinyl]-6-(4-hydroxy-phenyl)-1H-pyrazolo[3,4-b]pyridin-4-yl]-piperazin-1-yl-methanone]
21 | 99 | CCOc1ccc(/C=C/c2n[nH]c3nc(-c4ccc(O)cc4)cc(C(=O)N4CCNCC4)c23)cc1 [Example 67, [3-[(E)-2-(4-Ethoxy-phenyl)-vinyl]-6-(4-hydroxy-phenyl)-1 H-pyrazolo[3,4-b]pyridin-4-yl]-piperazin-1-yl-methanone]
22 | 100 | CN(C)Cc1cccc(/C=C/c2n[nH]c3nc(-c4ccc(O)cc4)cc(C(=O)N4CCNCC4)c23)c1 [Example 14, [3-[(E)-2-(3-Dimethylaminomethyl-phenyl)-vinyl]-6-(4-hydroxy-phenyl)-1H-pyrazolo[3,4-b]pyridin-4-yl]-piperazin-1-yl-methanone]
23 | 45 | O=C(CN1CCOCC1)N1CCN(C(=O)c2cc(-c3ccc(O)cc3)nc3[nH]nc(/C=C/c4ccccc4)c23)CC1 [Example 81, 1-{4-[6-(4-Hydroxy-phenyl)-3-((E)-styryl)-1H-pyrazolo[3,4-b]-pyridine-4-car-bonyl]-piperazin-1-yl}-2-mor-pholin-4-yl-ethanone]
24 | 98 | Cc1cccc(/C=C/c2n[nH]c3nc(-c4ccc(O)cc4)cc(C(=O)N4CCNCC4)c23)c1 [Example 38, [6-(4-Hydroxy-phenyl)-3-((E)-2-m-tolyl-vinyl)-1H-pyrazolo[3,4-b]pyridin-4-yl]-piperazin-1-yl-methanone]
25 | 61 | O=C(c1cc(-c2ccc(O)cc2)nc2[nH]nc(/C=C/c3ccc(Cl)c(Cl)c3)c12)N1CCNCC1 [Example 45, [3-[(E)-2-(3,4-Dichloro-phenyl)-vinyl]-6-(4-hydroxy-phenyl)-1H-pyrazolo[3,4-b]pyridin-4-yl]-piperazin-1-yl-methanone]
